Measurements taken from paper PMC12570502, “Kinetic characterization of RNA synthesis catalyzed by the model hyperthermophilic archaeon Thermococcus kodakarensis RNA polymerase” (mSphere, 2025).
pKd: −log10 of the molar value.

Target: T1, T. k. RNAP (Thermococcus kodakarensis RNA polymerase) (Thermococcus kodakarensis, UniProt Q5JE32+Q5JE33+Q5JE34)
T1 construct: gene rpo1N; assembled on synthetic RNA:DNA scaffold (EC+10); with DNA-directed RNA polymerase subunit Rpo3; DNA-directed RNA polymerase subunit Rpo4; DNA-directed RNA polymerase subunit Rpo5; DNA-directed RNA polymerase subunit Rpo6; DNA-directed RNA polymerase subunit Rpo7; DNA-directed RNA polymerase subunit Rpo10; DNA-directed RNA polymerase subunit Rpo11; DNA-directed RNA polymerase subunit Rpo12
Test: chemical quench-flow single-nucleotide addition, global fit (MENOTR)
Assay type: biochemical
Details: 25 °C, pH 8.39, Mg2+, heparin trap; elongation complex EC+10 on RNA:DNA scaffold; kinetic-model Kd with k1 fixed at 1 × 10^8 M^-1 s^-1; active site
Source text: chemical quench-flow single-nucleotide addition, global fit (MENOTR) on T. k. RNAP (Thermococcus kodakarensis RNA polymerase)

pKd: 5.53
SMILES: Nc1ncnc2c1ncn2[C@@H]1O[C@H](COP(=O)(O)OP(=O)(O)OP(=O)(O)O)[C@@H](O)[C@H]1O [ATP]
